From patent US20210177779A1, “COMBINATIONS OF OPIOIDS AND N-ACYLETHANOLAMINES” (SciSparc Ltd., priority 2015, published 2021)

What was measured:
Mice, strain ICR [1] = assay: Tail pinch test (modified Haffner's method); conditions: first test 15 min after dosing
Mice, strain ICR [2] = assay: Open field (OF) test, 15 minute session of spontaneous activity
Experimental: Open Field (OF) tests were performed as follows—Fifteen minutes after test item/vehicle administration, mice were placed at the center of an open field box (43×43×40 cm) between 9 AM and 5 PM. On each side of the open field box, two frames placed at 2 and 5 cm height with 16 photocell beams per side ensure movement detection. The computer defined grid lines that divided the open field into two compartments: margin and center. Several variables were recorded during a 15 minute session of spontaneous activity including: time spent moving, traveled distance, time spent and number of visits to the central compartment.

COc1ccc2c3c1O[C@H]1C(=O)CC[C@@]4(O)[C@@H](C2)N(C)CC[C@]314 [oxycodone]
Time after administration at which the analgesic effect began (Mice, strain ICR [1]; high dose oxycodone 10 mg/kg IP (PEA 25 mg/kg where combined), FIG. 3A): 15 min
Time after administration at which the analgesic effect began (Mice, strain ICR [1]; low dose oxycodone 5 mg/kg IP (PEA 25 mg/kg where combined), FIG. 3B): 15 min
Total distance traveled compared to vehicle control group (1M) (Mice, strain ICR [2]; oxycodone 10 mg/kg IP (PEA 25 mg/kg where combined), dosed 15 min before test, 6M P<0.001, 8M P<0.05, FIG. 1, associated with irritation level): significantly higher
Average animal velocity compared to vehicle control group (1M) (Mice, strain ICR [2]; oxycodone 10 mg/kg IP (PEA 25 mg/kg where combined), total distance (cm) / total moving time (sec), 6M P<0.001, 8M P<0.05, FIG. 2, associated with uncontrolled movement and confusion): significantly higher
Total distance traveled, effect of oxycodone (dose-dependent) (Mice, strain ICR [2]; oxycodone 5 and 10 mg/kg IP compared to vehicle 1M, FIG. 1): significantly increased
Average animal velocity, effect of oxycodone (dose-dependent) (Mice, strain ICR [2]; oxycodone 5 and 10 mg/kg IP compared to vehicle 1M, FIG. 2): significantly increased
